Laboratory results from PubChem BioAssay AID1845196 (Molecular Pharmacology Branch, DTP, NCI, 2023).

System: 292921-168-R tumor spheroid viability
Assay: Anticancer human tumor 292921-168-R patient-derived pancreatic carcinoma cell line growth inhibition
Conditions: spheroids with HUVEC and MSC; for IC50: curve of first compound; for viability, T/C: stronger effect = lower value
Outline: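 Single agents and combinations were tested on spheroids built from tumor cells plus HUVEC and hMSC, at half-log dilutions starting at or near clinical Cmax, else 10 microM; final DMSO 0.25% (v/v).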

[1] = second compound 30 pM, first compound 0.00949 µM
[2] = second compound 30 pM, first compound 0.03 µM
[3] = second compound 30 pM, first compound 0.0949 µM
[4] = second compound 30 pM, first compound 0.3 µM
[5] = second compound 30 pM, first compound 0.949 µM
[6] = second compound 30 pM, first compound 3 µM
[7] = second compound 94.9 pM, first compound 0.00949 µM
[8] = second compound 94.9 pM, first compound 0.03 µM
[9] = second compound 94.9 pM, first compound 0.0949 µM
[10] = second compound 94.9 pM, first compound 0.3 µM
[11] = second compound 94.9 pM, first compound 0.949 µM
[12] = second compound 94.9 pM, first compound 3 µM
[13] = second compound 0.0003 µM, first compound 0.00949 µM
[14] = second compound 0.0003 µM, first compound 0.03 µM
[15] = second compound 0.0003 µM, first compound 0.0949 µM
[16] = second compound 0.0003 µM, first compound 0.3 µM
[17] = second compound 0.0003 µM, first compound 0.949 µM
[18] = second compound 0.0003 µM, first compound 3 µM
[19] = second compound 0.000949 µM, first compound 0.00949 µM
[20] = second compound 0.000949 µM, first compound 0.03 µM
[21] = second compound 0.000949 µM, first compound 0.0949 µM
[22] = second compound 0.000949 µM, first compound 0.3 µM
[23] = second compound 0.000949 µM, first compound 0.949 µM
[24] = second compound 0.000949 µM, first compound 3 µM
[25] = second compound 0.003 µM, first compound 0.00949 µM
[26] = second compound 0.003 µM, first compound 0.03 µM
[27] = second compound 0.003 µM, first compound 0.0949 µM
[28] = second compound 0.003 µM, first compound 0.3 µM
[29] = second compound 0.003 µM, first compound 0.949 µM
[30] = second compound 0.003 µM, first compound 3 µM
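Note: spheroids exposed to compounds for 7 days.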

CNCc1ccc(-c2cc(-c3nc(-c4ccc(S(=O)(=O)C(C)C)cc4)cnc3N)on2)cc1 + COc1cc2c(cc1O)CCNC21CSC2c3c(OC(C)=O)c(C)c4c(c3C(COC1=O)N1C(O)C3Cc5cc(C)c(OC)c(O)c5C(C21)N3C)OCO4
IC50 (second compound 30 pM): 193 nM | IC50 (second compound 94.9 pM): 147 nM | IC50 (second compound 0.0003 µM): < 9.49 nM | IC50 (second compound 0.000949 µM): < 9.49 nM | IC50 (second compound 0.003 µM): < 9.49 nM | viability, T/C [1]: 96.9% | viability, T/C [2]: 104% | viability, T/C [3]: 71.5% | viability, T/C [4]: 36.8% | viability, T/C [5]: 15.8% | viability, T/C [6]: 13.2% | viability, T/C [7]: 100% | viability, T/C [8]: 96.4% | viability, T/C [9]: 69% | viability, T/C [10]: 19% | viability, T/C [11]: 13.2% | viability, T/C [12]: 8.91% | viability, T/C [13]: 45.9% | viability, T/C [14]: 50.7% | viability, T/C [15]: 28.6% | viability, T/C [16]: 14.5% | viability, T/C [17]: 10% | viability, T/C [18]: 8.68% | viability, T/C [19]: 2.7% | viability, T/C [20]: 5.05% | viability, T/C [21]: 4.26% | viability, T/C [22]: 4.15% | viability, T/C [23]: 3.65% | viability, T/C [24]: 0.18% | viability, T/C [25]: 0.18% | viability, T/C [26]: 0.17% | viability, T/C [27]: 0.15% | viability, T/C [28]: 0.2% | viability, T/C [29]: 0.24% | viability, T/C [30]: 0.16%

Cc1sc2c(c1C)C(c1ccc(Cl)cc1)=NC(CC(=O)Nc1ccc(O)cc1)c1nnc(C)n1-2 (stereo not given) + COc1cc2c(cc1O)CCNC21CSC2c3c(OC(C)=O)c(C)c4c(c3C(COC1=O)N1C(O)C3Cc5cc(C)c(OC)c(O)c5C(C21)N3C)OCO4
IC50 (second compound 30 pM): 1690 nM | IC50 (second compound 94.9 pM): 1720 nM | IC50 (second compound 0.0003 µM): 306 nM | IC50 (second compound 0.000949 µM): < 9.49 nM | IC50 (second compound 0.003 µM): < 9.49 nM | viability, T/C [1]: 110% | viability, T/C [2]: 120% | viability, T/C [3]: 118% | viability, T/C [4]: 136% | viability, T/C [5]: 63.5% | viability, T/C [6]: 36.5% | viability, T/C [7]: 106% | viability, T/C [8]: 110% | viability, T/C [9]: 118% | viability, T/C [10]: 110% | viability, T/C [11]: 79.2% | viability, T/C [12]: 22.5% | viability, T/C [13]: 53.8% | viability, T/C [14]: 52.6% | viability, T/C [15]: 63.2% | viability, T/C [16]: 50.7% | viability, T/C [17]: 4.2% | viability, T/C [18]: 0.5% | viability, T/C [19]: 1.64% | viability, T/C [20]: 1.61% | viability, T/C [21]: 0.91% | viability, T/C [22]: 0.26% | viability, T/C [23]: 0.07% | viability, T/C [24]: 0.13% | viability, T/C [25]: 0.18% | viability, T/C [26]: 0.16% | viability, T/C [27]: 0.16% | viability, T/C [28]: 0.15% | viability, T/C [29]: 0.25% | viability, T/C [30]: 0.58%

Cn1ncnc1[C@H]1c2n[nH]c(=O)c3cc(F)cc(c23)N[C@@H]1c1ccc(F)cc1 + COc1cc2c(cc1O)CCNC21CSC2c3c(OC(C)=O)c(C)c4c(c3C(COC1=O)N1C(O)C3Cc5cc(C)c(OC)c(O)c5C(C21)N3C)OCO4
IC50 (second compound 30 pM): 646 nM | IC50 (second compound 94.9 pM): 233 nM | IC50 (second compound 0.0003 µM): < 9.49 nM | IC50 (second compound 0.000949 µM): < 9.49 nM | IC50 (second compound 0.003 µM): < 9.49 nM | viability, T/C [1]: 103% | viability, T/C [2]: 86.9% | viability, T/C [3]: 76.5% | viability, T/C [4]: 70.5% | viability, T/C [5]: 41.4% | viability, T/C [6]: 11.9% | viability, T/C [7]: 85.1% | viability, T/C [8]: 69.8% | viability, T/C [9]: 65.1% | viability, T/C [10]: 47.5% | viability, T/C [11]: 26.4% | viability, T/C [12]: 9.68% | viability, T/C [13]: 26.6% | viability, T/C [14]: 29.4% | viability, T/C [15]: 24.2% | viability, T/C [16]: 17.1% | viability, T/C [17]: 14.6% | viability, T/C [18]: 7% | viability, T/C [19]: 4.23% | viability, T/C [20]: 4.2% | viability, T/C [21]: 3.68% | viability, T/C [22]: 2.89% | viability, T/C [23]: 1.55% | viability, T/C [24]: 0.27% | viability, T/C [25]: 0.19% | viability, T/C [26]: 0.19% | viability, T/C [27]: 0.17% | viability, T/C [28]: 0.22% | viability, T/C [29]: 0.18% | viability, T/C [30]: 0.42%

O=C(c1cc(Cc2n[nH]c(=O)c3ccccc23)ccc1F)N1CCN(C(=O)C2CC2)CC1 + COc1cc2c(cc1O)CCNC21CSC2c3c(OC(C)=O)c(C)c4c(c3C(COC1=O)N1C(O)C3Cc5cc(C)c(OC)c(O)c5C(C21)N3C)OCO4
IC50 (second compound 30 pM): 8260 nM | IC50 (second compound 94.9 pM): 7070 nM | IC50 (second compound 0.0003 µM): < 94.9 nM | IC50 (second compound 0.000949 µM): < 94.9 nM | IC50 (second compound 0.003 µM): < 94.9 nM | viability, T/C [3]: 99.4% | viability, T/C [4]: 103% | viability, T/C [5]: 96.6% | viability, T/C [6]: 91.9% | viability, T/C (second compound 30 pM, first compound 9.49 µM): 44.2% | viability, T/C (second compound 30 pM, first compound 30 µM): 21.8% | viability, T/C [9]: 94.8% | viability, T/C [10]: 94% | viability, T/C [11]: 88% | viability, T/C [12]: 82.2% | viability, T/C (second compound 94.9 pM, first compound 9.49 µM): 38.9% | viability, T/C (second compound 94.9 pM, first compound 30 µM): 22.4% | viability, T/C [15]: 48% | viability, T/C [16]: 41.3% | viability, T/C [17]: 38.6% | viability, T/C [18]: 34.3% | viability, T/C (second compound 0.0003 µM, first compound 9.49 µM): 10.7% | viability, T/C (second compound 0.0003 µM, first compound 30 µM): 13.2% | viability, T/C [21]: 3.75% | viability, T/C [22]: 4.31% | viability, T/C [23]: 3.14% | viability, T/C [24]: 3.26% | viability, T/C (second compound 0.000949 µM, first compound 9.49 µM): 1.19% | viability, T/C (second compound 0.000949 µM, first compound 30 µM): 0.39% | viability, T/C [27]: 0.15% | viability, T/C [28]: 0.13% | viability, T/C [29]: 0.13% | viability, T/C [30]: 0.23% | viability, T/C (second compound 0.003 µM, first compound 9.49 µM): 0.41% | viability, T/C (second compound 0.003 µM, first compound 30 µM): 1.31%
